Here are results for three compounds from publication PMC4071596, “Eurothiocin A and B, Sulfur-Containing Benzofurans from a Soft Coral-Derived Fungus Eurotium rubrum SH-823” (Marine Drugs, 2014).

The target of one series is α-glucosidase (Saccharomyces cerevisiae, UniProt P53341). The experiment in a line: α-Glucosidase inhibitory activity assay (p-nitrophenyl-α-glucopyranoside hydrolysis, absorbance at 400 nm). The class given is biochemical. The settings on record: for type of inhibition of α-glucosidase (Lineweaver-Burk plot method): kinetic studies at increasing concentration of substrates and inhibitors. How it is done: α-Glucosidase was assayed according to standard procedures by following the hydrolysis of nitrophenyl glycosides by monitoring formation of p-nitrophenol spectrometrically at 400 nm. The reaction mixture (final volume, 1 mL) consisted of the enzyme solution (20 μL, Sigma 9001-42-7, E.C 3.2.1.20), substrate (10 mM p-nitrophenyl-α-glucopyranoside, 20 μL, Fluka, BioChemika, Buchs, Switzerland) in 50 mM potassium phosphate buffer (pH 7.0) and test sample dissolved in DMSO (20 μL). The inhibitors were pre-incubated with the enzyme at 37 °C for 30 min, and the substrate was then added. The reaction was monitored spectrophotometrically by measuring the absorbance at 400 nm. […] The inhibitory activity of test compound was determined as a percentage in comparison to a blank according with the following equation: The inhibition rates (%) = [(ODcontrol − ODcontrol blank) − (ODtest − ODtest blank)]/(ODcontrol − ODcontrol blank) × 100%. The IC50 values of compounds were calculated by the nonlinear regression analysis and expressed as the mean ± SD of two distinct experiments. Kinetic parameters were determined using the Lineweaver-Burk double-reciprocal plot method at increasing concentration of substrates and inhibitors.
Chain of α-glucosidase (P53341 whole entry): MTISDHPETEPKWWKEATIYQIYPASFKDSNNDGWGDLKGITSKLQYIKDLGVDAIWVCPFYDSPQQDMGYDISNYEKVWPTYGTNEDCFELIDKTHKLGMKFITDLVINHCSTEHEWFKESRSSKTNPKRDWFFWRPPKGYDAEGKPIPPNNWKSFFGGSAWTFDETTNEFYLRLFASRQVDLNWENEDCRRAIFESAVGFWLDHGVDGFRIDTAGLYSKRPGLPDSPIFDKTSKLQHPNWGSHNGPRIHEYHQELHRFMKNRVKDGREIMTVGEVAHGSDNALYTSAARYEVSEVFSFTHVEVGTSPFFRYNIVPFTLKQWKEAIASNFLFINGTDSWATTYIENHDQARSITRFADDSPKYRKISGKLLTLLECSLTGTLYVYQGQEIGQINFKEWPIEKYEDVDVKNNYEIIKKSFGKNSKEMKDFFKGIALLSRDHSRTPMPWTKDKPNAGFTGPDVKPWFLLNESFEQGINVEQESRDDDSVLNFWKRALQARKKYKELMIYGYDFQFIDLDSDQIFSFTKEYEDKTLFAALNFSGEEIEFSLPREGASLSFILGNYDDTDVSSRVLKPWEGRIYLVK

With `CSC(=O)c1c(C)cc2c(c1O)CC(C(C)(C)O)O2` (stereo not shown) [Compound 1, eurothiocin A], at α-glucosidase, the “type of inhibition of α-glucosidase (Lineweaver-Burk plot method)” value is given as “competitive inhibitors”.
As for `CSC(=O)c1c(C)cc2c(c1O)CC(C(C)(O)CO)O2` (stereo not shown) [Compound 2, eurothiocin B], the melting point – broadly, the temperature of the solid-liquid transition – is 122 to 123 °C. The “type of inhibition of α-glucosidase (Lineweaver-Burk plot method)” value on α-glucosidase is given as “competitive inhibitors”.
As for butyrolactone I [Compound 4], the IC50 (commonly the concentration needed to halve the response being measured) against α-glucosidase (mean ± SD from two independent experiments, pre-incubated with the enzyme at 37 °C for 30 min, pH 7.0) amounted to 98.5 ± 3.3 µM.
